Data taken from patent US20240287089A1, “Preparation and Uses of 7-Azaindenoisoquinolines” (Purdue Research Foundation, priority 0001, published 2024).

Assays:
[1] = system: HOP-62 (Lung); settings: Lung HOP-62; reference 20; read-out: Cytotoxicity GI50; cited from earlier work
[2] = Brain penetration and plasma/brain pharmacokinetics in combination with Temodar or Lynparza
Method: A similar analysis was performed with LMP744 and LMP400 in combination with Temodar and Lynparza.

[3] = system: SN12C (Renal); settings: reference 20, read-out: Cytotoxicity GI50; cited from earlier work
[4] = dogs, same time points; cited from earlier work
[5] = system: DU-145 (Prostate); settings: Prostate DU-145; reference 20; read-out: Cytotoxicity GI50; cited from earlier work
[6] = 10 mg/kg IV + Lynparza 100 mg/kg PO, 0.25 h
[7] = 10 mg/kg IV + Lynparza 100 mg/kg PO, 0.5 h
[8] = 10 mg/kg IV + Lynparza 100 mg/kg PO, 1 h
[9] = 10 mg/kg IV + Lynparza 100 mg/kg PO, 2 h
[10] = 10 mg/kg IV + Lynparza 100 mg/kg PO, 4 h
[11] = 10 mg/kg IV + Lynparza 100 mg/kg PO, 8 h
[12] = 10 mg/kg IV + Lynparza 100 mg/kg PO, 24 h
[13] = LMP744 20 mg/kg IV + Temador 125 mg/kg PO, 0.25 h
[14] = LMP744 20 mg/kg IV + Temador 125 mg/kg PO, 0.5 h
[15] = LMP744 20 mg/kg IV + Temador 125 mg/kg PO, 1 h
[16] = LMP744 20 mg/kg IV + Temador 125 mg/kg PO, 2 h
[17] = LMP744 20 mg/kg IV + Temador 125 mg/kg PO, 4 h
[18] = LMP744 20 mg/kg IV + Temador 125 mg/kg PO, 8 h
[19] = LMP744 20 mg/kg IV + Temador 125 mg/kg PO, 24 h
[20] = brain, 10 mg/kg IV + Lynparza 100 mg/kg PO
[21] = brain, LMP744 20 mg/kg IV + Temador 125 mg/kg
[22] = plasma, 10 mg/kg IV + Lynparza 100 mg/kg PO
[23] = plasma, LMP744 20 mg/kg IV + Temador 125 mg/kg

## COc1cc2c3c(n(CCCNCCO)c(=O)c2cc1OC)-c1cc2c(cc1C3=O)OCO2 [LMP744]
[1]
  GI50: 20 nM
[2]; [6]
  Brain Conc: 89 ± 19 nM
  Brain/Plasma Conc Ratio: 0.46
  Plasma Conc: 1356 ± 229 nM
[2]; [7]
  Brain Conc: 780 ± 24 nM
  Brain/Plasma Conc Ratio: 0.83
  Plasma Conc: 940 ± 155 nM
[2]; [8]
  Brain Conc: 825 ± 250 nM
  Brain/Plasma Conc Ratio: 2.05
  Plasma Conc: 402 ± 29 nM
[2]; [9]
  Brain Conc: 850 ± 58 nM
  Brain/Plasma Conc Ratio: 2.64
  Plasma Conc: 322 ± 88 nM
[2]; [10]
  Brain Conc: 548 ± 28 nM
  Brain/Plasma Conc Ratio: 2.91
  Plasma Conc: 188 ± 54 nM
[2]; [11]
  Brain Conc: 557 ± 66 nM
  Brain/Plasma Conc Ratio: 7.74
  Plasma Conc: 72 ± 26 nM
[2]; [12]
  Brain Conc: 457 ± 61 nM
  Brain/Plasma Conc Ratio: 20.30
  Plasma Conc: 13 ± 2 nM
[2]; [13]
  Brain Conc: 1093 ± 168 nM
  Brain/Plasma Conc Ratio: 0.49
  Plasma Conc: 2238 ± 465 nM
[2]; [14]
  Brain Conc: 1199 ± 243 nM
  Brain/Plasma Conc Ratio: 0.89
  Plasma Conc: 1854 ± 101 nM
[2]; [15]
  Brain Conc: 1390 ± 145 nM
  Brain/Plasma Conc Ratio: 1.35
  Plasma Conc: 1027 ± 202 nM
[2]; [16]
  Brain Conc: 1328 ± 188 nM
  Brain/Plasma Conc Ratio: 2.49
  Plasma Conc: 534 ± 143 nM
[2]; [17]
  Brain Conc: 1272 ± 188 nM
  Brain/Plasma Conc Ratio: 3.58
  Plasma Conc: 355 ± 37 nM
[2]; [18]
  Brain Conc: 1244 ± 78 nM
  Plasma Conc: 139 ± 17 nM
[2]; [19]
  Brain Conc: 955 ± 76 nM
  Brain/Plasma Conc Ratio: 46
  Plasma Conc: 21 ± 4 nM
[2]; [20]
  AUClast: 5860 ng·h/g
  Cmax: 373 ng/g
  Tmax: 2.00 h
[2]; [21]
  AUClast: 12185 ng·h/g
  Cmax: 611 ng/g
  Tmax: 1.00 h
[2]; [22]
  AUCInf: 1535 ng·h/mL
  AUClast: 1491 ng·h/mL
  AUClast/D: 149 h·ng/mL per mg/kg
  AUC—% Extrap—obs: 2.83%
  C0: 2072 ng/mL
  Cl_obs: 109 mL/min/kg
  MRTInf—obs: 4.33 h
  T1/2: 5.43 h
  Vss—obs: 28.2 L/kg
[2]; [23]
  AUCInf: 2881 ng·h/mL
  AUClast: 2813 ng·h/mL
  AUClast/D: 141 h·ng/mL per mg/kg
  AUC—% Extrap—obs: 2.37%
  C0: 4973 ng/mL
  Cl_obs: 116 mL/min/kg
  MRTInf—obs: 4.09 h
  T1/2: 5.20 h
  Vss—obs: 28.4 L/kg
[3]
  GI50: < 10 nM
[4]
  mean tumor concentration relative to plasma concentration: at least 100 times
[5]
  GI50: < 10 nM
